The values that follow come from patent US11046699B2, “Pyrazolo-pyrimidin-amino-cycloalkyl compounds and their therapeutic uses” (RAPT THERAPEUTICS, INC., priority 2018, dated 2021).

The target of this assay is GCN2 (Homo sapiens, UniProt Q9P2K8). The assay is described as follows: GCN2 enzymatic endpoint assay: phosphorylation of GFP-eIF2α measured by TR-FRET (Lanthascreen). Format: biochemical. In a few lines: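 Endpoint GCN2 reaction with low ATP (2 μM) and 80 nM GFP-eIF2α, room temperature, 90 minutes. Detection mix with EDTA and Tb-labelled antibody; 520 nm/495 nm emission ratio reported.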

Setting [1] is: tested as described in Example 77, compound and/or hydrochloride, dihydrochloride or trifluoroacetic acid salt, read-out: IC 50 Activity.
Setting [2] is: GCN2 biochemical IC50, 4 nM GCN2, 2 μM ATP, 80 nM GFP-eIF2α, 90 min RT, read-out: GCN2 activity.

The structures appear in SMILES notation. Read-outs that look alike come from different tables or passages of the source. Some results are limits rather than exact numbers.

Sequence of GCN2 (Q9P2K8 whole entry): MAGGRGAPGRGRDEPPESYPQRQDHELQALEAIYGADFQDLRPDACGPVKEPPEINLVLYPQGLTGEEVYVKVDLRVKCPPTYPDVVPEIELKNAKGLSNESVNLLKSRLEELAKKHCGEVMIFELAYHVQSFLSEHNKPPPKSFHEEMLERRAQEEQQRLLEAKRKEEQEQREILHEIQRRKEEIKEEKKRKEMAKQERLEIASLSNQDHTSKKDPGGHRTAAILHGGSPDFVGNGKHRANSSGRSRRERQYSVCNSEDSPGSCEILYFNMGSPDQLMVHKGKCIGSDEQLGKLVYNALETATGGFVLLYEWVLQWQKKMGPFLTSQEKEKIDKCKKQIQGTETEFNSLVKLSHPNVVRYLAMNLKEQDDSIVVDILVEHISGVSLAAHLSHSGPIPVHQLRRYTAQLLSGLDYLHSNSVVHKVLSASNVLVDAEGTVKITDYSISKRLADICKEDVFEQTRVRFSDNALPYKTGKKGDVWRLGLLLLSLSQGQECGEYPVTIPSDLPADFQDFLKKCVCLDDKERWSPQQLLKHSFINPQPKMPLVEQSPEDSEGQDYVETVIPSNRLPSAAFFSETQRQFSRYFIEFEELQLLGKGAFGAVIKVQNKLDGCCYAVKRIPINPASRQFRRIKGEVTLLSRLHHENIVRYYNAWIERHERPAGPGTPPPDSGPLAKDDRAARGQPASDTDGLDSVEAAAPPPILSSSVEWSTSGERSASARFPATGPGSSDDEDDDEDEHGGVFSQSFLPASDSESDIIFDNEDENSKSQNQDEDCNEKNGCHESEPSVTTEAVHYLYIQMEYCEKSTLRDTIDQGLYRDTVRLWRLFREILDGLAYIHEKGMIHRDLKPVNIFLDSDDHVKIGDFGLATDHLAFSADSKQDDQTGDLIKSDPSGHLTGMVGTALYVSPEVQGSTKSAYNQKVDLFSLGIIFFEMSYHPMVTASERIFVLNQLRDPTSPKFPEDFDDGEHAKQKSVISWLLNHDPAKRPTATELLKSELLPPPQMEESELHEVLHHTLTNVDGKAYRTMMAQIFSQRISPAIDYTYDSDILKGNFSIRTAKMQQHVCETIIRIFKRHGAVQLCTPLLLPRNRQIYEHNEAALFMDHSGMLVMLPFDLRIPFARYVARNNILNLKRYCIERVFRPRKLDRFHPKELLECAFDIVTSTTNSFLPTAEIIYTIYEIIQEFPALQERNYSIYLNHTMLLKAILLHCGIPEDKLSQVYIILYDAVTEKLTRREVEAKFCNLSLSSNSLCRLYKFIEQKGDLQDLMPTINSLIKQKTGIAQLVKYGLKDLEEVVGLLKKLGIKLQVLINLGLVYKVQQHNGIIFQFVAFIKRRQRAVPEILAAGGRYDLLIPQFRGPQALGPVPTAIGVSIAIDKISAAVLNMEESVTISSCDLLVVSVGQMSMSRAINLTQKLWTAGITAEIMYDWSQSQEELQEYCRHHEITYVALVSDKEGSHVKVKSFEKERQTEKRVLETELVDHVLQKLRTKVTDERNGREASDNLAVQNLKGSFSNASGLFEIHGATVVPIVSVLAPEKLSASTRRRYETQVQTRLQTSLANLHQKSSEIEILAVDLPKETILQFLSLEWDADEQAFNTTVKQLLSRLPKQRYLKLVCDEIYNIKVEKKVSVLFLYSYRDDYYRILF

For the compound `CNC(=O)[C@]1(CO)CC[C@@H](Nc2ncc3c(Br)nn(-c4ccc(-c5nnc(C)s5)c(CCC#N)c4)c3n2)C1` [(1R,3R)-3-[[3-bromo-1-[3-(2-cyanoethyl)-4-(5-methyl-1,3,4-thiadiazol-2-yl)phenyl]pyrazolo[3,4-d]pyrimidin-6-yl]amino]-1-(hydroxymethyl)-N-methyl-cyclopentane-carboxamide], the IC50 under setting [1] lay in the range of 25 to 200 nM.
Same read-out and setting: to `O=C(N[C@H]1CC[C@](O)(C(F)(F)F)CC1)[C@@H]1CC[C@@H](Nc2ncc3c(Br)nn(-c4ccc5ncccc5c4)c3n2)C1` belongs 500 to 1000 nM; to `CNC(=O)[C@]1(C)CC[C@@H](Nc2ncc3c(Br)nn(-c4ccc(-c5cnccn5)nc4)c3n2)C1` [(1R,3R)-3-[[3-bromo-1-(6-pyrazin-2-yl-3-pyridyl)pyrazolo[3,4-d]pyrimidin-6-yl]amino]-N,1-dimethyl-cyclopentane-carboxamide], 25 to 200 nM.
As for `CNC(=O)[C@]1(C)CC[C@@H](Nc2ncc3c(Br)nn(-c4cc(CO)cc(C(F)(F)F)c4)c3n2)C1` [(1R,3R)-3-[[3-bromo-1-[3-(hydroxy-methyl)-5-(trifluoromethyl)phenyl]pyrazolo[3,4-d]pyrimidin-6-yl]amino]-N,1-dimethyl-cyclopentanecarboxamide], under setting [1], the IC50 fell in the range of 25 to 200 nM.
Still for that read-out and setting: to `CNC(=O)[C@]1(C)CC[C@@H](Nc2ncc3c(Br)nn(-c4ccc(-c5nnc(C)s5)c(CCO)c4)c3n2)C1` [(1R,3R)-3-[[3-bromo-1-[3-(2-hydroxyethyl)-4-(5-methyl-1,3,4-thiadiazol-2-yl)phenyl]pyrazolo[3,4-d]pyrimidin-6-yl]amino]-N,1-dimethyl-cyclopentanecarboxamide] belongs 25 to 200 nM; to `CNC(=O)[C@]1(C)CC[C@@H](Nc2ncc3c(Br)nn(-c4cc(CN5C(=O)CNCC5=O)c5ncccc5c4)c3n2)C1` [(1R,3R)-3-[[3-bromo-1-[8-[(2,6-dioxo-piperazin-1-yl)methyl]-6-quinolyl]pyrazolo [3,4-d]pyrimidin-6-yl]amino]-N,1-dimethyl-cyclopentanecarboxamide], 25 to 200 nM; to `N#Cc1cc(-n2nc(Br)c3cnc(N[C@@H]4CC[C@@H](C(=O)NC5CCS(=O)(=O)CC5)C4)nc32)cc2cccnc12` [(1R,3R)-3-((3-bromo-1-(8-cyanoquinolin-6-yl)-1H-pyrazolo[3,4-d]pyrimidin-6-yl)amino)-N-(1,1-dioxidotetrahydro-2H-thiopyran-4-yl)cyclopentane-1-carboxamide], 25 to 200 nM.
For the compound `CP(C)(=O)[C@@H]1CC[C@@H](Nc2ncc3c(Br)nn(-c4cc(C#N)cc(OCC5(F)CNC5)c4)c3n2)C1` [3-[3-bromo-6-[[(1R,3R)-3-dimethylphosphorylcyclopentyl]amino]pyrazolo[3,4-d]pyrimidin-1-yl]-5-[(3-fluoroazetidin-3-yl)methoxy]benzonitrile], under setting [1], the IC50 lay in the range of 25 to 200 nM.
For `CNS(=O)(=O)[C@@H]1CC[C@@H](Nc2ncc3c(Br)nn(-c4ccc(-c5nnc(C)s5)cc4)c3n2)C1` [Example 68, (1R,3R)-3-((3-bromo-1-(4-(5-methyl-1,3,4-thiadiazol-2-yl)phenyl)-1H-pyrazolo[3,4-d]pyrimidin-6-yl)amino)-N-methylcyclopentane-1-sulfonamide], under setting [2], the IC50 is less than 25 nM.
Consider `CNC(=O)[C@]1(C)CC[C@@H](Nc2ncc3c(Br)nn(-c4ccc5nc(OC)ncc5c4)c3n2)C1` [(1R,3R)-3-[[3-bromo-1-(2-methoxy-quinazolin-6-yl)pyrazolo[3,4-d]pyrimidin-6-yl]amino]-N,1-dimethyl-cyclopentane-carboxamide; 2,2,2-trifluoroacetic acid], for which, under setting [1], the IC50 was less than 25 nM.
Turning to `CNC(=O)[C@]1(C)CC[C@@H](Nc2ncc3c(Br)nn(-c4cc(CCCO)c5c(c4)CCC(=O)N5C)c3n2)C1`, under setting [1], the IC50 was less than 25 nM.
Regarding `C[C@H]1CN(C)C(=O)CN1C(=O)[C@@H]1CC[C@@H](Nc2ncc3c(Br)nn(-c4cc(F)c5ncccc5c4)c3n2)C1` [(S)-4-((1R,3R)-3-((3-bromo-1-(8-fluoroquinolin-6-yl)-1H-pyrazolo[3,4-d]pyrimidin-6-yl)amino)cyclopentane-1-carbonyl)-1,5-dimethyl-piperazin-2-one], the IC50 under setting [1] fell in the range of 25 to 200 nM.
With `CNC(=O)[C@]1(C)CC[C@@H](Nc2ncc3c(Br)nn(-c4ccc(-c5ncco5)c(NC(=O)[C@@H]5CCNC5)c4)c3n2)C1` [(3R)-N-[5-[3-bromo-6-[[(1R,3R)-3-methyl-3-(methylcarbamoyl)cyclopentyl]amino]pyrazolo[3,4-d]pyrimidin-1-yl]-2-oxazol-2-yl-phenyl]pyrrolidine-3-carboxamide], the IC50 under setting [1] was less than 25 nM.
Regarding `CNC(=O)[C@]1(C)CC[C@@H](Nc2ncc3c(Br)nn(-c4ccc5c(c4)OC(C)C(=O)N5C)c3n2)C1` (stereo partly drawn) [(1R,3R)-3-[[3-bromo-1-(2,4-dimethyl-3-oxo-1,4-benzoxazin-7-yl)pyrazolo [3,4-d]pyrimidin-6-yl]amino]-N,1-dimethyl-cyclopentanecarboxamide], the IC50 under setting [1] fell in the range of 25 to 200 nM.
Turning to `CNC(=O)[C@]1(C)CC[C@@H](Nc2ncc3c(Br)nn(-c4ccc5nc(N6CCN(C(C)=O)CC6)ncc5c4)c3n2)C1`, the IC50 under setting [1] is 25 to 200 nM.
As to `CNC(=O)[C@]1(C)CC[C@@H](Nc2ncc3c(Br)nn(-c4ccc(C#N)c(OCC(C)O)c4)c3n2)C1` (stereo partly drawn) [(1R,3R)-3-[[3-bromo-1-[4-cyano-3-(2-hydroxypropoxy)phenyl]pyrazolo [3,4-d]pyrimidin-6-yl]amino]-N,1-dimethyl-cyclopentanecarboxamide], the IC50 under setting [1] fell in the range of 25 to 200 nM.
Take `COCCNC(=O)[C@@H]1CC[C@@H](Nc2ncc3c(Br)nn(-c4ccc5ncccc5c4)c3n2)C1` [Example 1, (1R,3R)-3-((3-bromo-1-(quinolin-6-yl)-1H-pyrazolo[3,4-d]pyrimidin-6-yl)amino)-N-(2-methoxyethyl)cyclopentane-1-carboxamide]: the IC50 under setting [2] is less than 25 nM.
`Cc1nnc(-c2ccc(-n3nc(Br)c4cnc(N[C@@H]5CCC[C@@H](P(C)(C)=O)C5)nc43)cc2)s1` [3-bromo-N-[(1R,3R)-3-dimethylphosphoryl-cyclohexyl]-1-[4-(5-methyl-1,3,4-thiadiazol-2-yl)phenyl]pyrazolo[3,4-d]pyrimidin-6-amine]: the IC50 under setting [1] fell in the range of 25 to 200 nM.
As to `CNC(=O)[C@]1(C)CC[C@@H](Nc2ncc3c(Br)nn(-c4ccc5c(c4)OCC(=O)N5)c3n2)C1` [(1R,3R)-3-[[3-bromo-1-(3-oxo-4H-1,4-benzoxazin-7-yl)pyrazolo[3,4-d]pyrimidin-6-yl]amino]-N,1-dimethyl-cyclopentanecarboxamide], under setting [1], the IC50 was in the range of 25 to 200 nM.
Regarding `COCCNC(=O)[C@@H]1CC[C@@H](Nc2ncc3c(Br)nn(-c4cncc(OC)c4)c3n2)C1` [(1R,3R)-3-((3-bromo-1-(5-methoxypyridin-3-yl)-1H-pyrazolo[3,4-d]pyrimidin-6-yl)amino)-N-(2-methoxyethyl)cyclopentane-1-carboxamide], the IC50 under setting [1] lay in the range of 500 to 1000 nM.
With `CNC(=O)[C@]1(C)CC[C@@H](Nc2ncc3c(Br)nn(-c4ccc(-c5nnc(C)o5)c(C#N)c4)c3n2)C1` [Example 35, (1R,3R)-3-((3-bromo-1-(3-cyano-4-(5-methyl-1,3,4-oxadiazol-2-yl)phenyl)-1H-pyrazolo[3,4-d]pyrimidin-6-yl)amino)-N,1-dimethylcyclopentane-1-carboxamide; 2,2,2-trifluoroacetic acid], the IC50 under setting [2] is less than 25 nM.
